The data set is described as follows: Suitability test between capsule ingredients and rosuvastatin calcium (heating, HPLC of related material RRT 0.72). The following applies: rosuvastatin 50 mg mixed with 100 mg capsule ingredient, heated at 100° C. for 2 hours, FIG. 1. The class given is physicochemical. On the procedure: In order to evaluate interaction between the ingredients of a soft or hard capsule and statins, the following test was performed.
Specifically, gelatin (grade: 165 bloom, Geltech, Korea) which is a main ingredient of capsule; glycerol, propylene glycol and polyethylene glycol (PEG400), which are often used as a plasticizer; and sorbitol sorbitan solution (ROQUETTE, France, NF grade, containing solid content of 27.5 wt % of sorbitan and 34.4 wt % of sorbitol) were examined to evaluate the interaction with rosuvastatin calcium. In accordance with the ingredients described in Table 1, all ingredients were mixed, heated at 100° C. for 2 hours, and then evaluated by HPLC analysis.
HPLC analysis was performed using a stainless steel column of approximately 250 mm length, packed with 5 μm C18 or a similar column (Inertsil-ODS2, GL sciences) with a mobile phase of water:acetonitrile:1%(v/v) trifluoroacetic acid solution (62:37:1 (v/v)) at flow rate of 0.75 mL/min. The peak of related material as compared to the major peak of rosuvastatin, was analyzed quantitatively.

With `CC(C)c1nc(N(C)S(C)(=O)=O)nc(-c2ccc(F)cc2)c1/C=C/[C@@H](O)C[C@@H](O)CC(=O)[O-].CC(C)c1nc(N(C)S(C)(=O)=O)nc(-c2ccc(F)cc2)c1/C=C/[C@@H](O)C[C@@H](O)CC(=O)[O-].[Ca+2]` [Ref. Ex. 1, rosuvastatin calcium], the “production of related material RRT 0.72” value is on record as “excluding”.
